Data taken from patent publication US20060069132A1, “Azolecarboxamide herbicides” (priority 2004, published 2006).

Experiments:
Assay in all cases: Test E pre-/postemergence herbicide test
prickly sida = format: in vivo, Sida spinosa
Method in brief: (§1)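 Ratings from 0 (no effect) to 100 (complete control) were assigned by visual comparison with untreated plants 12 to 14 days after application. Test chemicals, formulated with surfactant in a non-phytotoxic solvent blend, were applied to soil after planting or to foliage of 2–18 cm plants.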

johnsongrass = format: in vivo, Sorghum halepense
Method in brief: as §1

common groundsel = format: in vivo, Senecio vulgaris
Method in brief: as §1

Surinam grass = format: in vivo, Urochloa decumbens
Method in brief: as §1

common ragweed = format: in vivo, Ambrosia elatior
Method in brief: as §1

Italian ryegrass = format: in vivo, Lolium multiflorum
Method in brief: as §1

bermudagrass = format: in vivo, Cynodon dactylon
Method in brief: as §1

common purslane = format: in vivo, Portulaca oleracea
Method in brief: as §1

tropical spiderwort = format: in vivo, Commelina benghalensis
Method in brief: as §1

quackgrass = format: in vivo, Elytrigia repens
Method in brief: as §1

Canada horseweed = format: in vivo, Erigeron Canadensis
Method in brief: as §1

[1] = Preemergence, 125 g ai/ha, scale 0 to 100
[2] = Preemergence, 250 g ai/ha, scale 0 (no effect) to 100 (complete control)
[3] = Postemergence, 500 g ai/ha, scale 0 to 100
[4] = Postemergence, 250 g ai/ha, scale 0 to 100
[5] = Preemergence, 62 g ai/ha, scale 0 to 100
[6] = Preemergence, 500 g ai/ha, scale 0 (no effect) to 100 (complete control)
[7] = postemergence, 125 g ai/ha, scale 0 to 100
[8] = postemergence, 62 g ai/ha, scale 0 to 100

CCc1nn(C(C)C)nc1C(=O)Nc1cccc(C(=O)N(C)CC)c1 [Compound 386]
Plant response rating, Prickly Sida (prickly sida; [1]): 100 | Plant response rating, Prickly Sida (prickly sida; [2]): 100 | Plant response rating, Johnsongrass (johnsongrass; [1]): 75 | Plant response rating, Johnsongrass (johnsongrass; [2]): 80 | Plant response rating, Groundsel (common groundsel; [1]): 30 | Plant response rating, Groundsel (common groundsel; [2]): 50 | Plant response rating, Surinam Grass (Surinam grass; [1]): 80 | Plant response rating, Ragweed (common ragweed; [1]): 20 | Plant response rating, Ragweed (common ragweed; [2]): 60 | Plant response rating, Ryegrass, Italian (Italian ryegrass; [1]): 60 | Plant response rating, Ryegrass, Italian (Italian ryegrass; [2]): 95 | Plant response rating, Bermudagrass (bermudagrass; [1]): 80 | Plant response rating, Bermudagrass (bermudagrass; [2]): 95 | Plant response rating, Purslane (common purslane; [1]): 100 | Plant response rating, Purslane (common purslane; [2]): 100 | Plant response rating, Spiderwort (tropical spiderwort; [1]): 10 | Plant response rating, Spiderwort (tropical spiderwort; [2]): 70 | Plant response rating, Quackgrass (quackgrass; [1]): 80 | Plant response rating, Quackgrass (quackgrass; [2]): 90 | Plant response rating, Horseweed (Canada horseweed; [1]): 75 | Plant response rating, Horseweed (Canada horseweed; [2]): 95

CCc1nn(C(C)(C)C)cc1C(=O)Nc1cc(C(=O)N(C)C)ccc1F [Compound 222, N-[5-[(dimethylamino)carbonyl]-2-fluorophenyl]-1-(1,1-dimethylethyl)-3-ethyl-1H-pyrazole-4-carboxamide]
Plant response rating, Prickly Sida (prickly sida; [3]): 100 | Plant response rating, Prickly Sida (prickly sida; [4]): 100 | Plant response rating, Prickly Sida (prickly sida; [5]): 20 | Plant response rating, Prickly Sida (prickly sida; [1]): 70 | Plant response rating, Prickly Sida (prickly sida; [2]): 100 | Plant response rating, Prickly Sida (prickly sida; [6]): 100 | Plant response rating, Prickly Sida (prickly sida; [7]): 100 | Plant response rating, Prickly Sida (prickly sida; [8]): 90 | Plant response rating, Johnsongrass (johnsongrass; [4]): 60 | Plant response rating, Johnsongrass (johnsongrass; [5]): 70 | Plant response rating, Johnsongrass (johnsongrass; [1]): 80 | Plant response rating, Johnsongrass (johnsongrass; [2]): 90 | Plant response rating, Johnsongrass (johnsongrass; [6]): 100 | Plant response rating, Johnsongrass (johnsongrass; [7]): 60 | Plant response rating, Johnsongrass (johnsongrass; [8]): 10 | Plant response rating, Groundsel (common groundsel; [3]): 100 | Plant response rating, Groundsel (common groundsel; [4]): 95 | Plant response rating, Groundsel (common groundsel; [5]): 30 | Plant response rating, Groundsel (common groundsel; [1]): 100 | Plant response rating, Groundsel (common groundsel; [2]): 100 | Plant response rating, Groundsel (common groundsel; [6]): 100 | Plant response rating, Groundsel (common groundsel; [7]): 70 | Plant response rating, Groundsel (common groundsel; [8]): 40 | Plant response rating, Surinam Grass (Surinam grass; [4]): 80 | Plant response rating, Surinam Grass (Surinam grass; [1]): 90 | Plant response rating, Surinam Grass (Surinam grass; [6]): 100 | Plant response rating, Surinam Grass (Surinam grass; [7]): 80 | Plant response rating, Surinam Grass (Surinam grass; [8]): 50 | Plant response rating, Ragweed (common ragweed; [4]): 70 | Plant response rating, Ragweed (common ragweed; [5]): 30 | Plant response rating, Ragweed (common ragweed; [1]): 85 | Plant response rating, Ragweed (common ragweed; [2]): 95 | Plant response rating, Ragweed (common ragweed; [6]): 95 | Plant response rating, Ragweed (common ragweed; [7]): 60 | Plant response rating, Ragweed (common ragweed; [8]): 20 | Plant response rating, Ryegrass, Italian (Italian ryegrass; [3]): 85 | Plant response rating, Ryegrass, Italian (Italian ryegrass; [4]): 85 | Plant response rating, Ryegrass, Italian (Italian ryegrass; [5]): 50 | Plant response rating, Ryegrass, Italian (Italian ryegrass; [1]): 100 | Plant response rating, Ryegrass, Italian (Italian ryegrass; [2]): 100 | Plant response rating, Ryegrass, Italian (Italian ryegrass; [6]): 100 | Plant response rating, Ryegrass, Italian (Italian ryegrass; [7]): 80 | Plant response rating, Ryegrass, Italian (Italian ryegrass; [8]): 50 | Plant response rating, Bermudagrass (bermudagrass; [3]): 80 | Plant response rating, Bermudagrass (bermudagrass; [4]): 80 | Plant response rating, Bermudagrass (bermudagrass; [5]): 80 | Plant response rating, Bermudagrass (bermudagrass; [1]): 100 | Plant response rating, Bermudagrass (bermudagrass; [2]): 100 | Plant response rating, Bermudagrass (bermudagrass; [6]): 100 | Plant response rating, Bermudagrass (bermudagrass; [7]): 80 | Plant response rating, Bermudagrass (bermudagrass; [8]): 60 | Plant response rating, Purslane (common purslane; [4]): 60 | Plant response rating, Purslane (common purslane; [5]): 70 | Plant response rating, Purslane (common purslane; [1]): 100 | Plant response rating, Purslane (common purslane; [2]): 100 | Plant response rating, Purslane (common purslane; [6]): 100 | Plant response rating, Purslane (common purslane; [7]): 30 | Plant response rating, Purslane (common purslane; [8]): 10 | Plant response rating, Spiderwort (tropical spiderwort; [4]): 60 | Plant response rating, Spiderwort (tropical spiderwort; [6]): 95 | Plant response rating, Spiderwort (tropical spiderwort; [7]): 40 | Plant response rating, Quackgrass (quackgrass; [3]): 85 | Plant response rating, Quackgrass (quackgrass; [4]): 80 | Plant response rating, Quackgrass (quackgrass; [5]): 10 | Plant response rating, Quackgrass (quackgrass; [1]): 80 | Plant response rating, Quackgrass (quackgrass; [2]): 100 | Plant response rating, Quackgrass (quackgrass; [6]): 100 | Plant response rating, Quackgrass (quackgrass; [7]): 75 | Plant response rating, Quackgrass (quackgrass; [8]): 30 | Plant response rating, Horseweed (Canada horseweed; [3]): 100 | Plant response rating, Horseweed (Canada horseweed; [4]): 90 | Plant response rating, Horseweed (Canada horseweed; [5]): 100 | Plant response rating, Horseweed (Canada horseweed; [1]): 100 | Plant response rating, Horseweed (Canada horseweed; [2]): 100 | Plant response rating, Horseweed (Canada horseweed; [6]): 100 | Plant response rating, Horseweed (Canada horseweed; [7]): 40 | Plant response rating, Horseweed (Canada horseweed; [8]): 20
